Measurements: patent US20240180895A1, “USE OF KAPPA OPIOID RECEPTOR AGONISTS TO TREAT CARDIOVASCULAR DISEASE” (Board of Supervisors of Louisiana State University and …, priority 2021, published 2024)

Legend:
Assay type in all cases: in vivo, rat
[1] = system: Sprague-Dawley rats; assay: Reversal of oral furosemide diuretic resistance by oral nalfurafine (FIG. 17)
Method: (§1) Male Sprague-Dawley rats were placed in individual metabolic cages in a room with 12-hour automatic light on/off control and allowed tap water and rodent chow ad libitum. Over the next two (2) days (control period), rats were administered vehicle (5% NaOH; 1 M PBS) orally (gavage) in the morning (9:00 am) and afternoon (2:00 pm) and urine was collected for 5-hours after the first oral treatment. […] This was repeated for 8 consecutive days (experimental period).

[2] = system: conscious Sprague-Dawley rats; assay: Metabolic cage renal excretory studies, oral gavage (Example 3); settings: oral gavage, mean±SEM
Method: (§2) Animals: Male Sprague-Dawley (SD) rats (Envigo Labs, Indianapolis, IN), 300-350 g, were individually housed under a 12 h light-dark cycle and allowed tap water and standard rodent diet ad libitum. Rats were randomly assigned to experimental groups for all acute and subacute studies. All procedures were approved by the Louisiana State University Health Sciences Center Institutional Animal Care and Use Committee and conducted in accordance with the National Institutes of Health guidelines for the care and use of animals.
Metabolic Cage Renal Excretory Studies: Rats were placed in metabolic cages (model 18cv, Fenco, Cataumet, MA) for 2 hours to allow for acclimation and voiding of residual urine. Following the acclimation period, rats were volume loaded with 20 cc kg^−1 drug or vehicle (isotonic saline) via oral gavage. Urines were collected each hour over a 5-hour period. Following completion of the study rats were returned to their home cages. […] These points are marked on the figures with number of measurements in parentheses.
(§3) Experimental Design and Analysis: All results are expressed as mean±SEM. […] Means between groups for total urine output, Na^+ concentration, K^+ concentration, and urine osmolality were compared using a Student's t-test. Statistical significance was characterized as P<0.05. Statistics were carried out using Prism 7.05 software (GraphPad Software, Inc., San Diego, CA) and IBM SPSS Statistics (IBM, Armonk, NY).

[3] = system: Sprague-Dawley rats placed on a low-salt diet; assay: Reversal of furosemide diuretic resistance by difelikefalin in rats on a low sodium diet (FIG. 16); settings: low sodium diet
Method: Male Sprague-Dawley rats were placed in individual metabolic cages in a room with 12-hour automatic light on/off control and allowed tap water. For these studies, rats were placed on a low-salt diet (0.1% NaCl) for one week prior to and throughout the experimental protocol. […] For the first two (2) days (control period), rats were administered vehicle (5% NaOH; 1 M PBS, IP) in the morning (9:00 am) and urine was then collected for 5-hours.

[4] = system: Sprague-Dawley rats; assay: Prevention of diuretic resistance to twice daily furosemide by nalfurafine, 5-hour urine (FIG. 15)
Method: as §1, with “M PBS, IP)” for “M PBS) orally (gavage)”, “pm) of each day, with” for “pm) and”, “urine” for “urine was”, “5-hours starting immediately” for “5-hours”, “first injection.” for “first oral treatment.”, “for 4” for “for 8”

[5] = system: conscious Sprague-Dawley rats; assay: Acute cardiovascular and renal excretory studies, i.v. bolus (Example 3)
Method: as §2
Surgical Procedures: Aseptic technique was followed for all surgical procedures. On the morning of the experiment, rats were anesthetized with and maintained under inhaled 2% isoflurane, and polyethylene catheters (PE50; BD Diagnostics, Sparks, MD) were surgically inserted into the left femoral vein and left femoral artery for the infusion of saline and/or drug administration and the recording of arterial blood pressure, respectively. Subsequently, a suprapubic incision was made and a flanged polyethylene catheter (PE240; BD Diagnostics, Sparks, MD) was inserted into the bladder, exteriorized, and sutured to surrounding muscle and skin. Rats were then placed in an elevated restrainer (Krowicki & Kapusta, 2011) to recover from surgery and allow collection of urine. When acute experimental protocols were completed, rats were anesthetized via isoflurane and decapitated.
Acute Cardiovascular and Renal Excretory Studies: Following surgery, rats received an i.v. infusion of isotonic saline at 55 μL min^−1 throughout the duration of the experiment and were allowed 4-6 hours to recover from anesthesia. Arterial catheters were connected to a pressure transducer (MLT0670, ADInstruments, Sydney, Australia), which was connected to Powerlab 8/30 (ADInstruments) for recording of pulsatile and mean arterial blood pressure (MAP) and heart rate (HR). Blood pressure and HR were visualized using LabChart software (v8.1.5; ADInstruments). […] Following this control period, drug or vehicle (isotonic saline) was injected into the femoral vein catheter at a volume of 2 cc kg^−1, and urines were collected in 10 minute periods for a span of 90 minutes. […] All groups are n=6. Urine volume was measured gravimetrically, urine sodium and potassium concentrations were measured using flame photometry (model 943; Instrumentation Laboratories, Lexington, MA), and urine osmolality was measured using a vapor pressure osmometer (model 5600; WESCOR, Logan, UT).
as §3

[6] = system: Sprague-Dawley rats; assay: Prevention of diuretic resistance to once daily furosemide by difelikefalin, 24-hour urine (FIG. 14)
Method: Male Sprague-Dawley rats were placed in individual metabolic cages in a room with 12-hour automatic light on/off control and allowed tap water and rodent chow ad libitum. Over the next two (2) days (control period), rats were administered vehicle (5% NaOH; 1 M PBS, IP) in the morning (9:00 am) and urine was then collected for 24-hours.

[7] = cumulative 5-hour urine, same doses
[8] = i.v. bolus, cumulative 90-min urine, same doses, mean±SEM

With `NS(=O)(=O)c1cc(C(=O)O)c(NCc2ccco2)cc1Cl` [furosemide] the “5-hour urine output at peak diuresis” value ([1]; furosemide (20 mg/kg per method) orally twice per day, day 1) was 13.97 ± 0.64 mL, the “5-hour urine output on day 6” value ([1]; furosemide alone orally twice per day, day 6) was 5.61 ± 1.14 mL and the “Day of peak diuresis” value ([1]; furosemide alone, oral) was 1 days. For the same compound, the “Potassium concentration [K+] in cumulative urine” value [2, 7] was 23.94±1.02 μeq ml^−1, the “Sodium concentration [Na+] in cumulative urine” value [2, 7] was 96.76±2.66 μeq ml^−1 and the Total urine output ([2]; cumulative urine of 5-hour protocol, nalfurafine 150 μg kg−1, furosemide 50 mg kg−1, HCTZ 5 mg kg−1, amiloride 5 mg kg−1, n=6) was 18.28 ± 0.67 mL. For the same compound, the “5-hour urine output on day 12” value ([3]; furosemide 10 mg/kg IP once daily alone, day 12) was 4.43 ± 0.54 mL, the “5-hour urine output at peak diuresis” value ([3]; furosemide 10 mg/kg IP once daily, day 1) was 9.86 ± 0.76 mL and the “Day of peak diuresis” value ([3]; furosemide alone) was 1 days. The “Day of peak diuresis” value ([4]; twice daily IP for 4 days) was 1 days, the “5-hour urine output on day 4” value ([4]; twice daily IP, furosemide 20 mg/kg alone or with nalfurafine 10 μg/kg, day 4) was 7.41 ± 1.40 mL and the “5-hour urine output at peak diuresis” value ([4]; twice daily IP, furosemide 20 mg/kg alone or with nalfurafine 10 μg/kg, mean±SEM) was 13.99 ± 0.72 mL. For the same compound, the “Duration of the increase in urine flow rate above control” value ([5]; after i.v. bolus) was 30 min, the “Time of peak diuresis (urine flow rate)” value ([5]; after i.v. bolus) was 10 min and the “Effect on heart rate (HR)” value ([5]; i.v. bolus, 90-min protocol) was “did not produce any change in MAP or HR”. The “Effect on MAP” value ([5]; i.v. bolus, diuretic alone, 90-min protocol) was “did not produce any change in MAP or HR”, the “Potassium concentration [K+] in cumulative urine” value [5, 8] was 14.51±0.63 μeq ml^−1 and the “Sodium concentration [Na+] in cumulative urine” value [5, 8] was 138±1.58 μeq ml^−1. For the same compound, the Urine osmolality [5, 8] was 379.8 ± 15.33 mmol/kg, the Total urine output ([5]; i.v. bolus, cumulative urine of 90-min protocol, nalfurafine 5 μg kg−1, furosemide 7.5 mg kg−1, HCTZ 2.5 mg kg−1, amiloride 2 mg kg−1, mean±SEM, n=6) was 9.20 ± 0.75 mL and the “Day of peak diuresis” value ([6]; once daily IP for 10 days) was 2 days. The “24-hour urine output on day 10” value ([6]; once daily IP, furosemide 10 mg/kg alone or with difelikefalin 20 μg/kg, day 10) was 5.57 ± 0.63 mL and the “24-hour urine output at peak diuresis” value ([6]; once daily IP, furosemide 10 mg/kg alone or with difelikefalin 20 μg/kg, mean±SEM) was 14.98 ± 1.85 mL.
